Measurements from patent US7649012B2, “Compounds, pharmaceutical compositions containing same, and methods of use for same” (FASgen, Inc., priority 2002, dated 2010).
pIC50: −log10 of the molar value. In brackets after ≈: the same amount, converted by molar mass.

Tests used:
[1] = tested on: MCF-7 human breast cancer cells; assay: [14C]acetate incorporation into total lipids; format: cell-based; settings: [14C]acetate incorporation into lipids
Protocol: This assay measures the incorporation of [^14C]acetate into total lipids and is a measure of fatty acid synthesis pathway activity in vitro. It is utilized to measure inhibition of fatty acid synthesis in vitro.
MCF-7 human breast cancer cells cultured as above, are plated at 5×10^4 cells per well in 24-well plates. […] DMSO is added to triplicate wells for a vehicle control. C75 is run at 5 and 10 μg/ml in triplicate as positive controls. After 4 hours of incubation, 0.25 μCi of [^14C]acetate (10 μl volume) is added to each well.
After 2 hours of additional incubation, medium is aspirated from the wells and 800 μl of chloroform:methanol (2:1) and 700 μl of 4 mM MgCl2 is added to each well. Contents of each well are transferred to 1.5 Eppendorf tubes, and spun at full-speed for 2 minutes in a high-speed Eppendorf Microcentrifuge 5415D. After removal of the aqueous (upper) layer, an additional 700 μl of chloroform:methanol (2:1) and 500 μl of 4 mM MgCl2 are added to each tube and then centrifuged for 1 minutes as above. The aqueous layer is removed with a Pasteur pipette and discarded. An additional 400 μl of chloroform:methanol (2:1) and 200 μl of 4 mM MgCl2 are added to each tube, then centrifuged and aqueous layer is discarded. The lower (organic) phase is transferred into a scintillation vial and dried at 40° C. under N2 gas. Once dried, 3 ml of scintillant (APB #NBC5104) is added and vials are counted for ^14C. The Beckman Scintillation counter calculates the average cpm values for triplicates.
The IC50 for the compounds is defined as the concentration of drug leading to a 50% reduction in [^14C]acetate incorporation into lipids compared to controls. […] The average cpm values are computed by the Beckman scintillation counter (Model LS6500) for each compound concentration. Computation of linear regression, best-fit line, r^2, and 95% confidence intervals are calculated using Prism Version 3.0 (Graph Pad Software).

[2] = tested on: MCF-7 human breast cancer cells; assay: Crystal violet cell growth assay; format: cell-based; settings: MCF7, MCF-7, 72 hours, read-out: Cr. Violet(IC50)
Protocol: The crystal violet assay measure cell growth but not cytotoxicity. This assay employs crystal violet staining of fixed cells in 96-well plates with subsequent solubilization and measurement of OD490 on a spectrophotometer. The OD490 corresponds to cell growth per unit time measured. Cells are treated with the compounds of interest or vehicle controls and IC50 for each compound is computed.
To measure the cytotoxicity of specific compounds against cancer cells, 5×10^4 MCF-7 human breast cancer cells, obtained from the American Type Culture Collection are plated per well in 24 well plates in DMEM medium with 10% fetal bovine serum, penicillin, and streptomycin. Following overnight culture at 37° C. and 5% CO2, the compounds to be tested, dissolved in DMSO, are added to the wells in 1 μl volume at the following concentrations: 50, 40, 30, 20, and 10 μg/ml in triplicate. Additional concentrations are tested if required. 1 μl of DMSO is added to triplicate wells are the vehicle control. C75 is run at 10, and 5 μg/ml in triplicate as positive controls.
After 72 hours of incubation, cells are stained with 0.5 ml of Crystal Violet stain (0.5% in 25% methanol) in each well. After 10 minutes, wells are rinsed, air dried, and then solubilized with 0.5 ml 10% sodium dodecylsulfate with shaking for 2 hours.

[3] = tested on: Staphylococcus aureus (ATCC # 29213); assay: Broth microdilution MIC; format: cell-based; settings: Staphylococcus aureus, ATCC29213; Trypticase Soy Broth; read-out: SA/Tsoy(MIC)
Protocol: (§1) A broth microdilution assay is used to assess the antimicrobial activity of the compounds. […] Microorganisms tested include Staphylococcus aureus (ATCC # 29213), Enterococcus faecalis (ATCC # 29212), Pseudomonas aeruginosa (ATCC # 27853), and Escherichia coli (ATCC # 25922). The assay is performed in two growth media, Mueller Hinton Broth and Trypticase Soy Broth. […] Colonies are suspended in sterile broth so that the turbidity matches the turbidity of a 0.5 McFarland standard. The inoculum is diluted 1:10 in sterile broth (Mueller Hinton or Trypticase soy) and 195 ul is dispensed per well of a 96-well plate. The compounds to be tested, dissolved in DMSO, are added to the wells in 5 ul volume at the following concentrations: 25, 12.5, 6.25, 3.125, 1.56 and 0.78 ug/ml in duplicate. Additional concentrations are tested if required. 5 ul of DMSO added to duplicate wells are the vehicle control. Serial dilutions of positive control compounds, vancomycin (E. faecalis and S. aureus) and tobramycin (E. coli and P. aeruginosa), are included in each run. After 24 hours of incubation at 37° C., plates are read at OD600 on a Molecular Devices SpectraMax Plus Spectrophotometer. Average OD600 values are computed using SOFTmax Pro Software (Molecular Devices) and MIC values are determined by linear regression analysis using Prism version 3.02 (Graph Pad Software, San Diego).

[4] = tested on: Pseudomonas aeruginosa (ATCC # 27853); assay: Broth microdilution MIC; format: cell-based
Protocol: as §1

Raji cells = settings: cited from earlier work
[5] = biological target: rat liver acyl-CoA synthetase; settings: read-out: 50% inhibition of rat liver acyl-CoA synthetase; cited from earlier work
viral HIV protease = viral HIV protease (Human immunodeficiency virus type 1 group M subtype B, UniProt P04585); settings: cited from earlier work

C=CCOC1=C(C)C(=O)S[C@]1(C)CCCCCCCC (racemic)
14C(IC50) [1]: Neg | IC50 [2]: 15.1 µg/mL (≈ 50.9 µM)

CCCCCCCC[C@@]1(C)SC(=O)C(C(=O)OC)=C1O (racemic)
MIC [3]: 23 µg/mL (≈ 76.6 µM) | PSAE/MH(MIC) ([4]; Mueller Hinton Broth): Neg | PSAE/Tsoy(MIC) ([4]; Trypticase Soy Broth): Neg

CCCC=CCC=CC=CC=NN=NO [Triacsin C, 1-hydroxy-3-(E, E, E-2′,4′,7′-undecatrienylidine) triazene]
concentration causing growth inhibition in Raji cells (Raji cells): 1.0 µM | pIC50 [5]: 5.06

C/C=C/C/C=C/CCC(=O)[C@H]1O[C@H]1C(N)=O [cerulenin, (2S,3R)-2,3-epoxy-4-oxo-7,10 dodecadienoyl amide]
concentration for inhibition of viral HIV protease (viral HIV protease): 5 mg/mL
